Experimental data published in BigSolDB 2.1.

CC(C(=O)O)c1ccc(CC2CCCC2=O)cc1 (stereo not given)
solubility (mole fraction)
Conditions | 283.15 K | 288.15 K | 293.15 K | 298.15 K | 303.15 K | 308.15 K | 313.15 K | 318.15 K | 323.15 K | 328.15 K
in 1,4-dioxane | 0.154 | 0.171 | 0.19 | 0.214 | 0.246 | 0.272 | 0.304 | 0.339 | 0.378 | 0.408
in acetonitrile | 0.0234 | 0.0296 | 0.0364 | 0.0419 | 0.059 | 0.0847 | 0.113 | 0.166 | 0.233 | 0.318
in ethanol | 0.0573 | 0.0676 | 0.0717 | 0.0943 | 0.123 | 0.154 | 0.208 | 0.252 | 0.316 | 0.389
in ethyl acetate | 0.0521 | 0.0621 | 0.0752 | 0.0848 | 0.0996 | 0.13 | 0.162 | 0.19 | 0.244 | 0.301
in ethyl orthosilicate | 0.0247 | 0.0293 | 0.0325 | 0.0365 | 0.043 | 0.0491 | 0.0565 | 0.0694 | 0.0796 | 0.0991
in isobutyl acetate | 0.0261 | 0.0314 | 0.0357 | 0.0451 | 0.0583 | 0.0688 | 0.0913 | 0.116 | 0.144 | 0.191
in isopentyl acetate | 0.0253 | 0.0306 | 0.035 | 0.0448 | 0.0561 | 0.0674 | 0.0829 | 0.109 | 0.134 | 0.165
in isopropanol | 0.0589 | 0.0747 | 0.0874 | 0.0966 | 0.128 | 0.145 | 0.189 | 0.224 | 0.277 | 0.339
in isopropyl acetate | 0.0298 | 0.0373 | 0.0443 | 0.056 | 0.0694 | 0.0819 | 0.11 | 0.134 | 0.176 | 0.229
in methanol | 0.0694 | 0.0783 | 0.0897 | 0.118 | 0.163 | 0.216 | 0.283 | 0.364 | 0.496 | 0.628
in methyl acetate | 0.0568 | 0.0659 | 0.0797 | 0.0895 | 0.11 | 0.136 | 0.17 | 0.205 | 0.255 | 0.325
in n-butyl acetate | 0.0284 | 0.0338 | 0.0418 | 0.0527 | 0.0621 | 0.0764 | 0.096 | 0.122 | 0.156 | 0.205
in n-propanol | 0.0526 | 0.0643 | 0.0792 | 0.0905 | 0.116 | 0.139 | 0.184 | 0.223 | 0.269 | 0.338
in n-propyl acetate | 0.0384 | 0.0483 | 0.0529 | 0.0631 | 0.0814 | 0.0978 | 0.127 | 0.155 | 0.199 | 0.261
